Broadly, the pIC50 is −log10 of the IC50, conventionally taken in molar units.

Experiment [1] addresses Recombinant purified human BTK (Homo sapiens (Human), UniProt Q06187). Description: BTK kinase inhibitory activity, ADP-Glo kinase assay kit (Promega V9071). The note with it: ATP 10 uM, 8 ng BTK per reaction, 1 hour at 30° C., chemiluminescence. It counts as biochemical. As for the experimental part: (§1) JAK3 and BTK kinase inhibitory activities were measured for the compounds prepared in the above Examples through in vitro analysis on the ADP Glow (Glo) platform.
(§2) Specifically, the inhibitory activities of JAK3 and BTK kinase were measured using a JAK3 kinase assay kit (Promega, V9441) and a BTK kinase assay kit (Promega, V9071) which were purchased from Promega. Recombinant purified human JAK3 and BTK were diluted with 1× kinase reaction buffer (JAK3: 40 mM Tris-Cl, pH 7.5, 20 mM MgCl2, 0.1 mg/mL BSA and 50 uM DTT/BTK: 40 mM Tris-Cl, pH 7.5, 20 mM MgCl2, 0.1 mg/mL BSA, 2 mM MnCl2 and 50 uM DTT) and added to a 96 well plate (JAK3: final concentration of 4 ng per reaction/BTK: final concentration of 8 ng per reaction). […] After incubation (30° C.) for 1 hour, equivalent volume (25 uL per reaction) of ADP Glo was added and incubated (30° C.) for 40 minutes at room temperature. Then, a kinase detection reagent (50 uL per reaction) was added and incubated (30° C.) for 30 minutes at room temperature. The kinase activity was measured by chemiluminescence according to the instructions of ADP Glo kinase assay kit, and the inhibitory activity of the compounds according to the present invention was calculated.
For orientation: In ADP-Glo the light output rises with the ADP produced.

Experiment [2] has as its target Recombinant purified human JAK3 (Homo sapiens (Human), UniProt P52333). Description: JAK3 kinase inhibitory activity, ADP-Glo kinase assay kit (Promega V9441). It counts as biochemical. The conditions noted are these: ATP 5 uM, 4 ng JAK3 per reaction, 1 hour at 30° C., chemiluminescence. As for the experimental part:
as §1, §2

pIC50: −log10 of the molar value.

Recombinant purified human JAK3, sequence (P52333 whole entry): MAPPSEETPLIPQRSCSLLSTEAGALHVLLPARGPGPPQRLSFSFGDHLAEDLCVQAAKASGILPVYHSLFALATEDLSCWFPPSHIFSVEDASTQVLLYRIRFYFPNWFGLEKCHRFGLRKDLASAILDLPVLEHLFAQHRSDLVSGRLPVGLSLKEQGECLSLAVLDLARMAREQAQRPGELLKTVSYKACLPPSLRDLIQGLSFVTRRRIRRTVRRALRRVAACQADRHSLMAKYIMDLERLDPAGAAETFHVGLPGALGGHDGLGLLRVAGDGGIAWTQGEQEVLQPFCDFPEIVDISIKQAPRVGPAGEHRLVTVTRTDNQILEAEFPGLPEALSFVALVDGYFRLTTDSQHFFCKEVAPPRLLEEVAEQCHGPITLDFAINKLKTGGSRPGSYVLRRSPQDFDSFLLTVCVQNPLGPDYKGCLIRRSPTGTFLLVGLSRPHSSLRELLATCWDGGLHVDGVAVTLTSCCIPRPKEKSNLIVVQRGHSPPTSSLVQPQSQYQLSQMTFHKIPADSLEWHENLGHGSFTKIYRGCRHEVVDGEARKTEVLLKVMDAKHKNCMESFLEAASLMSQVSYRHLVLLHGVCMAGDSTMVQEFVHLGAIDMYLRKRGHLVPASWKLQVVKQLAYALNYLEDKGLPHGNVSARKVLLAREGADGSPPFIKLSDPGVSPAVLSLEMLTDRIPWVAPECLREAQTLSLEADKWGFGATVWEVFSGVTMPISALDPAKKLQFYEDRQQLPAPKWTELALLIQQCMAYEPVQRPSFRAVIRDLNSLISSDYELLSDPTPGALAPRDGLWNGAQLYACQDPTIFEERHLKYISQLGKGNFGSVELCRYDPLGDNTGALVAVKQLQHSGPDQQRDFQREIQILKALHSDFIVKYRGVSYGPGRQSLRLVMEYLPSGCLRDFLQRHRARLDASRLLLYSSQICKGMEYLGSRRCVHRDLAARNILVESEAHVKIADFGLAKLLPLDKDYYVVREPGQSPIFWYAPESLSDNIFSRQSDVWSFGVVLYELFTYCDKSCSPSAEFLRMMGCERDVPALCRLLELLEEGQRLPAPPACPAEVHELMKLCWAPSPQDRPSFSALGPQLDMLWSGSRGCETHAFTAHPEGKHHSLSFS
Recombinant purified human BTK, sequence (Q06187 whole entry): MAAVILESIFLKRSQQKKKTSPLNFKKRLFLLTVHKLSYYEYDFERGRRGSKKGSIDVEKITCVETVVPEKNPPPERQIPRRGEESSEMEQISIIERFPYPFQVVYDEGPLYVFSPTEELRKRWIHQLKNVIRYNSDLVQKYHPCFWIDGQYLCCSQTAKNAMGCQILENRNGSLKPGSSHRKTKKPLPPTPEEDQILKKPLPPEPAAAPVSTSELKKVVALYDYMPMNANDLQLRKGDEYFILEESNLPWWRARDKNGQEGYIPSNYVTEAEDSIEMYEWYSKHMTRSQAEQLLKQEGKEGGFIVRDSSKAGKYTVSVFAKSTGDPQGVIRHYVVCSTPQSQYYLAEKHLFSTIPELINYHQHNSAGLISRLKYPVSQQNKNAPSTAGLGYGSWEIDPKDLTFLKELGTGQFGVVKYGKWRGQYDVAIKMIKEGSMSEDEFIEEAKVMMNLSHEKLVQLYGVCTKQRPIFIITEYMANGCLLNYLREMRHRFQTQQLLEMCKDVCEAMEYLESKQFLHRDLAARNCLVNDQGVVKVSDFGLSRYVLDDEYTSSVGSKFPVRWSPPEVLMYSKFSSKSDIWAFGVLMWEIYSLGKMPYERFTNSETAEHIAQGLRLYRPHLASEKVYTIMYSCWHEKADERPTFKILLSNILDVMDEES

With `C=CC(=O)Nc1ccc(F)c(Oc2nc(Nc3cnn(C4CC4)c3)nn3cccc23)c1` [Example 1, N-(3-((2-((1-cyclopropyl-1H-pyrazol-4-yl)amino)pyrrolo[2,1-f][1,2,4]triazin-4-yl)oxy)-4-fluorophenyl)acrylamide], the results for the negative-log IC50 (pIC50) in experiment [1] and in experiment [2] were 7.87 and 8.96, respectively.
Turning to `C=CC(=O)Nc1cccc(Oc2nc(Nc3ccc(N4CCN(C)CC4)cc3)nn3cccc23)c1` [Example 2, N-(3-((2-((4-(4-methylpiperazin-1-yl)phenyl)amino)pyrrolo[2,1-f][1,2,4]triazin-4-yl)oxy)phenyl)acrylamide], the values for the negative logarithm of the IC50 (pIC50) in experiment [1] and in experiment [2] were 7.64 and 8.55, respectively.
Taken in the same sequence, the figures for `C=CC(=O)Nc1cccc(Oc2nc(Nc3cnn(C)c3)nn3cccc23)c1` [Example 3, N-(3-((2-((1-methyl-1H-pyrazol-4-yl)amino)pyrrolo[2,1-f][1,2,4]triazin-4-yl)oxy)phenyl)acrylamide] were 7.90 and 9.22.
On the same counts, the results for `C=CC(=O)Nc1cccc(Oc2nc(Nc3cnn(CC(F)F)c3)nn3cccc23)c1` [Example 4, N-(3-((2-((1-(2,2-difluoroethyl)-1H-pyrazol-4-yl)amino)pyrrolo[2,1-f][1,2,4]triazin-4-yl)oxy)phenyl)acrylamide] are 7.87 and 9.15.
On the same counts, the results for `C=CC(=O)Nc1cccc(Oc2nc(Nc3cc(C)ns3)nn3cccc23)c1` [Example 5, N-(3-((2-((3-methylisothiazol-5-yl)amino)pyrrolo[2,1-f][1,2,4]triazin-4-yl)oxy)phenyl)acrylamide] are 8.06 and 9.22.
Consider `C=CC(=O)Nc1cccc(Oc2nc(Nc3cnn(CC)c3)nn3cccc23)c1` [Example 6, N-(3-((2-((1-ethyl-1H-pyrazol-4-yl)amino)pyrrolo[2,1-f][1,2,4]triazin-4-yl)oxy)phenyl)acrylamide], for which the results for the pIC50 in experiment [1] and in experiment [2] were 8.00 and 9.30, respectively.
On the same counts, the results for `C=CC(=O)Nc1ccc(F)c(Oc2nc(Nc3cc(C)ns3)nn3cccc23)c1` [Example 7, N-(4-fluoro-3-((2-((3-methylisothiazol-5-yl)amino)pyrrolo[2,1-f][1,2,4]triazin-4-yl)oxy)phenyl)acrylamide] are 7.97 and 9.30.
In the case of `C=CC(=O)Nc1ccc(F)c(Oc2nc(Nc3cnn(CC)c3)nn3cccc23)c1` [Example 8, N-(3-((2-((1-ethyl-1H-pyrazol-4-yl)amino)pyrrolo[2,1-f][1,2,4]triazin-4-yl)oxy)-4-fluorophenyl)acrylamide], the pIC50 is 8.11 in experiment [1] and 9.22 in experiment [2].
`C=CC(=O)Nc1ccc(F)c(Oc2nc(Nc3ccn(C)c3)nn3cccc23)c1` [Example 9, N-(4-fluoro-3-((2-((1-methyl-1H-pyrrol-3-yl)amino)pyrrolo[2,1-f][1,2,4]triazin-4-yl)oxy)phenyl)acrylamide]: the pIC50 in experiment [1] is 6.61; in experiment [2], 7.77.
On the same counts, the results for `C=CC(=O)Nc1ccc(F)c(Oc2nc(Nc3cnn(CC(C)C)c3)nn3cccc23)c1` [Example 10, N-(4-fluoro-3-((2-((1-isobutyl-1H-pyrazol-4-yl)amino)pyrrolo[2,1-f][1,2,4]triazin-4-yl)oxy)phenyl)acrylamide] are 6.95 and 8.02.
Taken in the same sequence, the figures for `C=CC(=O)Nc1cccc(Oc2nc(Nc3cnn(C4CC4)c3)nn3cccc23)c1` [Example 11, N-(3-((2-((1-cyclopropyl-1H-pyrazol-4-yl)amino)pyrrolo[2,1-f][1,2,4]triazin-4-yl)oxy)phenyl)acrylamide] were 6.97 and 7.99.
Taken in the same sequence, the figures for `C=CC(=O)Nc1ccc(F)c(Oc2nc(Nc3ccc(N(C)C)cc3)nn3cccc23)c1` [Example 12, N-(3-((2-((4-(dimethylamino)phenyl)amino)pyrrolo[2,1-f][1,2,4]triazin-4-yl)oxy)-4-fluorophenyl)acrylamide] were 8.12 and 9.15.
Take `C=CC(=O)Nc1ccc(F)c(Oc2nc(Nc3ccc(Oc4ccccc4)cc3)nn3cccc23)c1` [Example 13, N-(4-fluoro-3-((2-((4-phenoxyphenyl)amino)pyrrolo[2,1-f][1,2,4]triazin-4-yl)oxy)phenyl)acrylamide]: the figures for the pIC50 in experiment [1] and in experiment [2] were 6.21 and 7.38, respectively.
Taken in the same sequence, the figures for `C=CC(=O)Nc1ccc(F)c(Oc2nc(Nc3ccc4ncsc4c3)nn3cccc23)c1` [Example 14, N-(3-((2-((benzo[d]thiazol-6-yl)amino)pyrrolo[2,1-f][1,2,4]triazin-4-yl)oxy)-4-fluorophenyl)acrylamide] were 7.36 and 8.01.
For the compound `C=CC(=O)Nc1ccc(F)c(Oc2nc(Nc3cccnc3)nn3cccc23)c1` [Example 15, N-(4-fluoro-3-((2-((pyridin-3-yl)amino)pyrrolo[2,1-f][1,2,4]triazin-4-yl)oxy)phenyl)acrylamide], the pIC50 was 6.99 in experiment [1] and 7.81 in experiment [2].
Taken in the same sequence, the figures for `C=CC(=O)Nc1cccc(Oc2nc(Nc3ccc(C(C)C)cc3)nn3cccc23)c1` [Example 16, N-(3-((2-((4-isopropylphenyl)amino)pyrrolo[2,1-f][1,2,4]triazin-4-yl)oxy)phenyl)acrylamide] were 6.91 and 7.70.
On the same counts, the results for `C=CC(=O)Nc1cccc(Oc2nc(Nc3ccc(OC)cc3)nn3cccc23)c1` [Example 17, N-(3-((2-((4-methoxyphenyl)amino)pyrrolo[2,1-f][1,2,4]triazin-4-yl)oxy)phenyl)acrylamide] are 7.16 and 8.23.
Taken in the same sequence, the figures for `C=CC(=O)Nc1cccc(Oc2nc(Nc3ccc(C(=O)N4CCOCC4)cc3)nn3cccc23)c1` [Example 18, N-(3-((2-((4-(morpholine-4-carbonyl)phenyl)amino)pyrrolo[2,1-f][1,2,4]triazin-4-yl)oxy)phenyl)acrylamide] were 7.42 and 8.66.
For `C=CC(=O)Nc1cccc(Oc2nc(Nc3ccsc3)nn3cccc23)c1` [Example 19, N-(3-((2-((thiophen-3-yl)amino)pyrrolo[2,1-f][1,2,4]triazin-4-yl)oxy)phenyl)acrylamide], the pIC50 in experiment [1] is 7.20; in experiment [2], 8.28.
Regarding `C=CC(=O)Nc1cccc(Oc2nc(Nc3ccn(C)n3)nn3cccc23)c1` [Example 20, N-(3-((2-((1-methyl-1H-pyrazol-3-yl)amino)pyrrolo[2,1-f][1,2,4]triazin-4-yl)oxy)phenyl)acrylamide], the pIC50 in experiment [1] was 6.19; in experiment [2], 7.24.
Taken in the same sequence, the figures for `C=CC(=O)Nc1cccc(Oc2nc(Nc3ccc(CN(C)C)cc3)nn3cccc23)c1` [Example 21, N-(3-((2-((4-((dimethylamino)methyl)phenyl)amino)pyrrolo[2,1-f][1,2,4]triazin-4-yl)oxy)phenyl)acrylamide] were 6.98 and 7.93.
Taken in the same sequence, the figures for `C=CC(=O)Nc1cccc(Oc2nc(Nc3ccc(N4CCOCC4)cc3)nn3cccc23)c1` [Example 22, N-(3-((2-((4-morpholinophenyl)amino)pyrrolo[2,1-f][1,2,4]triazin-4-yl)oxy)phenyl)acrylamide] were 7.45 and 8.28.
For the compound `C=CC(=O)Nc1cccc(Oc2nc(Nc3ccc(N(C)C)cc3)nn3cccc23)c1` [Example 23, N-(3-((2-((4-(dimethylamino)phenyl)amino)pyrrolo[2,1-f][1,2,4]triazin-4-yl)oxy)phenyl)acrylamide], the negative-log IC50 (pIC50) was 7.22 in experiment [1] and 7.98 in experiment [2].
For the compound `C=CC(=O)Nc1cccc(Oc2nc(Nc3cc4n(n3)CCN(C)C4)nn3cccc23)c1` [Example 24, N-(3-((2-((5-methyl-4,5,6,7-tetrahydropyrazolo[1,5-a]pyrazin-2-yl)amino)pyrrolo[2,1-f][1,2,4]triazin-4-yl)oxy)phenyl)acrylamide], the pIC50 in experiment [1] is 6.78; in experiment [2] it was 7.73.
On the same counts, the results for `C=CC(=O)Nc1ccc(F)c(Oc2nc(Nc3ccc(N4CCN(C)CC4)cc3)nn3cccc23)c1` [Example 25, N-(4-fluoro-3-((2-((4-(4-methylpiperazin-1-yl)phenyl)amino)pyrrolo[2,1-f][1,2,4]triazin-4-yl)oxy)phenyl)acrylamide] are 8.10 and 8.85.
On the same counts, the results for `C=CC(=O)Nc1ccc(F)c(Oc2nc(Nc3cnn(CC(F)F)c3)nn3cccc23)c1` [Example 26, N-(3-((2-((1-(2,2-difluoroethyl)-1H-pyrazol-4-yl)amino)pyrrolo[2,1-f][1,2,4]triazin-4-yl)oxy)-4-fluorophenyl)acrylamide] are 8.21 and 9.05.
On the same counts, the results for `C=CC(=O)Nc1ccc(F)c(Oc2nc(Nc3cnn(C)c3)nn3cccc23)c1` [Example 27, N-(4-fluoro-3-((2-((1-methyl-1H-pyrazol-4-yl)amino)pyrrolo[2,1-f][1,2,4]triazin-4-yl)oxy)phenyl)acrylamide] are 8.30 and 9.15.
